This note sets out measurements from patent USRE47689E1, “Compounds for treating spinal muscular atrophy” (PTC Therapeutics, Inc., priority 2011, dated 2019).

The test system of the assay is SMA Δ7 homozygous knockout mice. The experiment in a line: Righting reflex in neonatal Δ7 SMA mice. It counts as in vivo, mouse. The conditions noted are these: IP QD from PND 3 to day 24, then orally BID, compared to vehicle. As for the experimental part:
The functional change in righting reflex of neonatal SMA mice is used to determine whether treatment with a test compound improves righting reflex.
Protocol. SMA Δ7 homozygous knockout mice are dosed intraperitoneally (IP) with test compound or vehicle (100% DMSO) once per day (QD) from postnatal day (PND) 3 until the dose regimen is switched to an oral dose twice per day (BID) in 0.5% hydroxypropylmethyl cellulose (HPMC) with 0.1% Tween-80 at a dose 3.16-fold higher than the dose used for IP. The righting reflex time is measured as the time taken by a mouse to flip over onto its feet after being laid on its back. Righting reflex is measured five times for each mouse (allowing a maximal time of 30 sec for each try) with 5 minutes between each measurement. The righting reflex time for SMA Δ7 homozygous knockout mice treated with test compound or vehicle and age-matched heterozygous mice is measured on PND 10, 14 and 18 and plotted.

`CC(C)NCCc1ccc2cc(-c3nc4c(Cl)cccc4s3)c(=O)oc2c1` [Cpd 35, 3-(4-chloro-1,3-benzothiazol-2-yl)-7-[2-(propan-2-ylamino)ethyl]-2H-chromen-2-one]: the righting reflex result was “improved compared to vehicle treated mice”.
